From US9301923B2, “Lipids, lipid compositions, and methods of using them” (NOVARTIS AG, priority 2009, dated 2016) come the findings set out here.

Where “and” joins values, the source holds several entries; their conditions need not be identical. Identical values can stand only once. Like-named read-outs stand apart in the source and are kept apart here.

A short description of series [1]: pKa of the lipid by TNS fluorescence. The series is classed as physicochemical. An outline of the steps:
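Lipid dissolved in ethanol (2 mM stock) and measured with TNS across eight buffers of differing pH, in water at standard temperature and pressure. Normalized fluorescence intensity plotted against pH and points joined by a smooth line to derive pKa, precise to about 0.2 units.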

For the next series, the system named is Factor VII. Kind of series: Factor VII activity assay, in vivo liver delivery of FVII siRNA LNP. The note with it: for FVII inhib %: ~48 h. More on the design: species or system mouse. An outline of the steps:
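Female CD-1 mice (~25 g) given a single i.v. tail-vein dose of FVII siRNA in LNPs (cationic, stealth, neutral lipids), dosed as mg siRNA/kg. Plasma collected ~48 h post-injection; FVII activity read against a standard curve from pooled vehicle-control plasma.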

For series [2], the system named is PLK-1 mRNA in Hep3B tumors. As to the kind of experiment: Hep3B tumor study, PLK-1 mRNA KD in tumor tissue. Type of series: in vivo, human. The note with it: Hep3B tumor, mouse, i.v., LNP composition as in the source. The text has this: Formulated siRNAs are made up of double stranded siRNA sequences specific to a target mRNA sequence, and are in the form of lipid nucleotid particles (LNPs) containing cationic lipids, stealth lipids and neutral lipids, as provided in the Examples below. The siRNA construct for use in targeting the liver is specific to Factor VII. The siRNA construct for use in targeting tumors is specific to PLK1-424, which is published by Judge et al., See, J Clin Invest. 2009 March; 119(3):661-73; doi: 10.1172/JCI37515). • 1. FVII siRNA duplex sequence
Hep3B tumors are established in female nude mice by sc injection of 7×10^6 cells in 100 ul PBS into the left flank. Mice are randomized into treatment groups 10-14 days after seeding as tumors reached an average size of 100 mm^3. siRNA formulated LNP formulations are administered at various dose levels intravenously via the lateral tail vein calculated on a mg siRNAs/kg basis according to individual animal weights (10 ml/kg injection volume). Mice are euthanized by CO2 inhalation at various time points and the tumors are harvested for mRNA quantitation. Lipids with a wide range of pKa (5.3-6.6) are used in the LNP formulations. Tumors are measured in 2 dimensions (width×length) to assess tumor growth using digital calipers. Tumor volume is calculated using the equation [a×b×b/2], where a equals the largest diameter and b equals the smallest diameter.
About 30-50 mg tumor tissue is homogenized in tissue lysis buffer in a Qiagen homogenizer followed by centrifugation to clarify lysates. Total RNA is isolated using RNeasy isolation kit (catalog number 74106) according to the manufacture's protocol. PLK-1 mRNA is analyzed by quantitative PCR and normalized to human GAPDH. Applied Biosystems human PLK-1 gene expression assay Hs00983229_m1 and human GAPDH endogenous control cat number 4326317E are used for mRNA detection.
The pKa in all tables refers to the pKa of the cationic lipid. Where multiple doses are indicated (e.g., 3×5), the first number indicates the number of doses given and the second number indicates the amount per dose in mg siRNA (biologically active agent) per kg mouse. In general the multiple doses are administered at 24 hour intervals, and tissues for mRNA quantitation are harvested 24 hours after the last dose.

The nature of series [3]: Particle size and PDI by dynamic light scattering (Malvern Zetasizer). The series is classed as physicochemical. An outline of the steps: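 Nanoparticles diluted in PBS to a count rate of about 200-400 kcts and measured by dynamic light scattering; size given as intensity-weighted average diameter, with polydispersity index from the same measurement.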
Where [4] appears, read: dose 3 mg/kg siRNA i.v., lipid/no neutral lipid/CHOL/AVANTI 880150P 50/0/46/4, N/P 3.43.
The mark [5] stands for this setting: LNP formulation with PLK1 siRNA, helper, neutral and stealth lipid, molar ratio and N/P as in the table.
The mark [6] stands for this setting: lipid/DSPC/CHOL/AVANTI 880150P 50/28/18/4, N/P 3.43.
Where [7] appears, read: lipid/no neutral lipid/CHOL/AVANTI 880150P 50/0/46/4, N/P 3.43.
Where [8] appears, read: lipid/no neutral lipid/CHOL/GM-020 NOF 60/0/34/6, N/P 3.
Setting [9] is: lipid/no neutral lipid/CHOL/GM-020 NOF 60/0/36/4, N/P 3.
[10] abbreviates: lipid/no neutral lipid/CHOL/GM-020 NOF 60/0/38/2, N/P 3.
Where [11] appears, read: dose 1 mg/kg siRNA i.v., lipid/no neutral lipid/CHOL/GM-020 NOF 60/0/36/4, N/P 3.
[12] abbreviates: dose 3 mg/kg siRNA i.v., lipid/DSPC/CHOL/AVANTI 880150P 50/28/18/4, N/P 3.43.

As to `CCCCC/C=C\C/C=C\CCCCCCCCOCC(CN1CCCCC1)OCCOCCO[C@H]1CC[C@@]2(C)C(=CCC3C2CC[C@@]2(C)C3CC[C@@H]2[C@H](C)CCCC(C)C)C1` (some centres unmarked) [E0014], the pKa in series [1] and in series [1] (pKa) was 6.4 each time. Also, the FVII inhib % in the series with Factor VII (dose 1 mg/kg siRNA i.v., lipid/DSPC/CHOL/AVANTI 880150P 50/28/18/4, N/P 3.43) was 72.1%; in the series with Factor VII (dose 1 mg/kg siRNA i.v., lipid/no neutral lipid/CHOL/GM-020 NOF 60/0/34/6, N/P 3), 25%; in the series with Factor VII (dose 1 mg/kg siRNA i.v., lipid/no neutral lipid/CHOL/GM-020 NOF 60/0/36/4, N/P 3, 1 mg/kg), 68.5% and 37.6%; in the series on Factor VII (dose 1 mg/kg siRNA i.v., lipid/no neutral lipid/CHOL/GM-020 NOF 60/0/38/2, N/P 3), 71.5%; with Factor VII (dose 3 mg/kg siRNA i.v., lipid/DSPC/CHOL/AVANTI 880150P 50/28/18/4, N/P 3.43, 3 mg/kg), 98.6% and 95.8%; in the series with Factor VII (setting [4]), 97.4%. In addition, the FVII inhib % is recorded as 96.6% with Factor VII (dose 3 mg/kg siRNA i.v., lipid/no neutral lipid/CHOL/GM-020 NOF 60/0/34/6, N/P 3); 94% in the series on Factor VII (dose 3 mg/kg siRNA i.v., lipid/no neutral lipid/CHOL/GM-020 NOF 60/0/36/4, N/P 3); 96.2% with Factor VII (dose 3 mg/kg siRNA i.v., lipid/no neutral lipid/CHOL/GM-020 NOF 60/0/38/2, N/P 3). Also, the “in vivo Factor VII inhibition” value with Factor VII (formulation containing the cationic lipid, RNAi construct specific to Factor VII, liver) is 97.4%. The PLK1 inhibition % in series [2] (1 × 10 mg siRNA/kg) is reported as 22%. The “Final size (nm)” value was 82.21 nm in series [3] (setting [5]); 104 nm and 95 nm in series [3] (setting [6]); 148 nm in series [3] (setting [7]); 85.8 nm in series [3] (setting [8]); 101.5 nm and 94.6 nm in series [3] (setting [9]); 141 nm in series [3] (setting [10]). Also, the PDI is 0.151 and 0.148 in series [3] (setting [6]); 0.05 in series [3] (setting [7]); 0.106 in series [3] (setting [8]); 0.182 and 0.092 in series [3] (setting [9]); 0.122 in series [3] (setting [10]).
Take `CCCCC/C=C\C/C=C\CCCCCCCCOCC(CN1CCC(OC)C1)OCCCOCCCO[C@H]1CC[C@@]2(C)C(=CC[C@H]3[C@@H]4CC[C@H]([C@H](C)CCCC(C)C)[C@@]4(C)CC[C@@H]32)C1` (some centres unmarked) [E0088]: the pKa in series [1] (pKa) was 5.79. In addition, in the series on Factor VII (setting [11]), the FVII inhib % came out at 50.8%. The molecule further showed a PLK1 inhibition % in series [2] (1 × 5 mg siRNA/kg) of 71%. The entries for the “Final size (nm)” value in series [3] (setting [5]) and in series [3] (setting [9]) were 146.2 nm and 110.7 nm, respectively. This molecule yielded a PDI in series [3] (setting [9]) of 0.080.
In series [1] (pKa), `CCCCCCCC/C=C\CCCCCCCCOCC(CN1CCCCC1)OCCO[C@H]1CC[C@@]2(C)C(=CC[C@H]3[C@@H]4CC[C@H]([C@H](C)CCCC(C)C)[C@@]4(C)CC[C@@H]32)C1` (some centres unmarked) [E0061] returned a pKa of 6.28. Moreover, in the series on Factor VII (setting [11]), the FVII inhib % came out at 52.6%. The same molecule returned a PLK1 inhibition % in series [2] (1 × 1 mg siRNA/kg) of 23%. Further, the “Final size (nm)” value in series [3] (setting [5]) is reported as 90.09 nm. In series [3] (setting [9]), the “Final size (nm)” value was found to be 139.4 nm and the PDI is on record as 0.073.
In series [1] (pKa), `CCCCC/C=C\C/C=C\CCCCCCCCOCC(Cn1ccnc1)OCCOCCO[C@H]1CC[C@@]2(C)C(=CCC3C2CC[C@@]2(C)C3CC[C@@H]2[C@H](C)CCCC(C)C)C1` (some centres unmarked) [E0051] came in with a pKa of 5.73. Further, the FVII inhib % in the series with Factor VII (setting [12]) is listed as 17%; in the series on Factor VII (setting [4]) it was 77.5%. In addition, in series [2] (1 × 10 mg siRNA/kg), the PLK1 inhibition % came out at 17%. The “Final size (nm)” value in series [3] (setting [5]) was determined as 85.77 nm; in series [3] (setting [6]) it was 157.7 nm; in series [3] (setting [7]), 142.9 nm. For the same molecule, the PDI in series [3] (setting [6]) is 0.131; in series [3] (setting [7]) it was 0.057.
`CCCCC/C=C\C/C=C\CCCCCCCCOCC(CN1CCC(C)CC1)OCCOCCO[C@H]1CC[C@@]2(C)C(=CC[C@H]3[C@@H]4CC[C@H]([C@H](C)CCCC(C)C)[C@@]4(C)CC[C@@H]32)C1` (some centres unmarked) [E0008]: the pKa in series [1] (pKa) worked out at 5.81. Besides, the figures for the FVII inhib % in the series with Factor VII (setting [12]) and in the series with Factor VII (setting [4]) were 73% and 84.5%, respectively. For the same molecule, the PLK1 inhibition % in series [2] (1 × 1 mg siRNA/kg) worked out at 38%; in series [2] (1 × 5 mg siRNA/kg), 85%. In addition, the “Final size (nm)” value in series [3] (LNP formulation with PLK1 siRNA, helper, neutral and stealth lipid, molar ratio and N/P as in the table, stealth lipid S004, molar ratio 60/38/2, N/P 4) was 123.1 nm; in series [3] (LNP formulation with PLK1 siRNA, helper, neutral and stealth lipid, molar ratio and N/P as in the table, stealth lipid S011, molar ratio 60/38/2, N/P 4), 93.11 nm; in series [3] (setting [6]), 85 nm; in series [3] (setting [7]) it was 84 nm. Besides, the PDI in series [3] (setting [6]) was 0.168; in series [3] (setting [7]), 0.214.
`CCCCC/C=C\C/C=C\CCCCCCCCOCC(CN1CCC(O)C1)OCCOCCO[C@H]1CC[C@@]2(C)C(=CC[C@H]3[C@@H]4CC[C@H]([C@H](C)CCCC(C)C)[C@@]4(C)CC[C@@H]32)C1` (some centres unmarked) [E0045] displayed a pKa in series [1] (pKa) of 4.73. Further, the results for the FVII inhib % in the series with Factor VII (setting [12]) and with Factor VII (setting [4]) were 10.4% and 90.7%, respectively. Besides, the PLK1 inhibition % in series [2] (1 × 1 mg siRNA/kg) is listed as 36%. The results for the “Final size (nm)” value in series [3] (setting [5]), in series [3] (setting [6]) and in series [3] (setting [7]) were 103.2 nm, 100 nm and 103 nm, respectively. Also, the values for the PDI in series [3] (setting [6]) and in series [3] (setting [7]) were 0.18 and 0.25, respectively.
